Assay results as given in ChEMBL document CHEMBL4052681, “Discovery of simplified leucyladenylate sulfamates as novel leucyl-tRNA synthetase (LRS)-targeted mammalian target of rapamycin complex 1 (mTORC1) inhibitors” (Bioorg Med Chem, 2017).
Calls of active or inactive are those of the source. No cut-off for these calls is given here.

What was measured:
[1] = molecular target: T1, Leucine--tRNA ligase, cytoplasmic (Homo sapiens, UniProt Q9P2J5); assay: Inhibition of LRS-dependent mTORC1 activation in HEK293 cells assessed as reduction in leucine-induced mTORC1-mediated S6 Kinase phosphorylation at 100 nM pretreated before leucine stimulation measured after 10 mins by immunoblot analysis; format: cell-based
Target sequence in this assay (Q9P2J5 whole entry, looked up): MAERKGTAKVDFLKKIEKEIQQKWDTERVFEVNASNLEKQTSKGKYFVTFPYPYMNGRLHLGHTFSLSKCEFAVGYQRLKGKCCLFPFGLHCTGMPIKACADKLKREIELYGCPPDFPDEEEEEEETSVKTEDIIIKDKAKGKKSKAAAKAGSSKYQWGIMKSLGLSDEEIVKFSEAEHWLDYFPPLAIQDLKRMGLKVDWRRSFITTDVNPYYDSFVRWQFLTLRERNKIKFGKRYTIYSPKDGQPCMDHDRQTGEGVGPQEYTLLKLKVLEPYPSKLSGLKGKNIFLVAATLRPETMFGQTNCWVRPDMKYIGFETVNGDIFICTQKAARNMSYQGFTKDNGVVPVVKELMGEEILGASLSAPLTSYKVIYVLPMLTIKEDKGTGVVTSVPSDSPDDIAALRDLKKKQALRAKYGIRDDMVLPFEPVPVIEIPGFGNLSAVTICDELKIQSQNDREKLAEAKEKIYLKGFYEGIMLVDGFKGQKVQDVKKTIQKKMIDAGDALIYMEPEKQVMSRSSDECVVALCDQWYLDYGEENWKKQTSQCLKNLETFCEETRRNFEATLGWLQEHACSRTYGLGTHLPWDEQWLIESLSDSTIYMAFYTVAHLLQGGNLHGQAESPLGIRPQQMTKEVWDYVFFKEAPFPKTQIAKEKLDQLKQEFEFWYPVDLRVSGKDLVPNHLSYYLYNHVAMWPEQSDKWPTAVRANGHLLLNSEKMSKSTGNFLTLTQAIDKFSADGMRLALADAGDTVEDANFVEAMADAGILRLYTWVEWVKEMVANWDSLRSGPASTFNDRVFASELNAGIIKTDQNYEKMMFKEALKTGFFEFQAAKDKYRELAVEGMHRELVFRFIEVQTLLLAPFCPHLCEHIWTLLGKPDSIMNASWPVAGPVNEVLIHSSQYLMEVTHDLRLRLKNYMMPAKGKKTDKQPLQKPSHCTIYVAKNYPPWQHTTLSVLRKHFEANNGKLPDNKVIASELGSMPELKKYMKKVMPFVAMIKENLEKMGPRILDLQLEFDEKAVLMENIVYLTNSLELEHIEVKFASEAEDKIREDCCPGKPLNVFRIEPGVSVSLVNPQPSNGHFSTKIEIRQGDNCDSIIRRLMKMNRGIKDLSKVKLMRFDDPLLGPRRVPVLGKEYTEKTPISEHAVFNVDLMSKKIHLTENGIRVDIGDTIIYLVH

A549 = assay: Growth inhibition of human A549 cells incubated for 72 hrs by sulforhodamine B assay; format: functional, cell-based; conditions: A549, 72 h
K562 = assay: Growth inhibition of human K562 cells incubated for 72 hrs by sulforhodamine B assay; format: functional, cell-based; conditions: K562, 72 h
MDA-MB-231 = assay: Growth inhibition of human MDA-MB-231 cells incubated for 72 hrs by sulforhodamine B assay; format: functional, cell-based; conditions: MDA-MB-231, 72 h
MRC5 = assay: Growth inhibition of human MRC5 cells incubated for 72 hrs by sulforhodamine B assay; format: cell-based; conditions: MRC5, 72 h
SNU-638 = assay: Growth inhibition of human SNU638 cells incubated for 72 hrs by sulforhodamine B assay; format: functional, cell-based; conditions: SNU-638, 72 h
HCT-116 = assay: Growth inhibition of human HCT116 cells incubated for 72 hrs by sulforhodamine B assay; format: functional, cell-based; conditions: HCT-116, 72 h
SK-HEP1 = assay: Growth inhibition of human SKHEP1 cells incubated for 72 hrs by sulforhodamine B assay; format: functional, cell-based; conditions: SK-HEP1, 72 h
[2] = molecular target: T1, Leucine--tRNA ligase, cytoplasmic; assay: Inhibition of LRS-dependent mTORC1 activation in HEK293 cells assessed as reduction in leucine-induced mTORC1-mediated S6 Kinase phosphorylation at 20 to 200 uM pretreated before leucine stimulation measured after 10 mins by immunoblot analysis; format: cell-based
Target sequence in this assay (Q9P2J5 whole entry, looked up): as above

[3] = molecular target: T1, Leucine--tRNA ligase, cytoplasmic; assay: Inhibition of LRS-dependent mTORC1 activation in HEK293 cells assessed as reduction in leucine-induced mTORC1-mediated S6 Kinase phosphorylation pretreated before leucine stimulation measured after 10 mins by immunoblot analysis; format: cell-based
[4] = molecular target: T1, Leucine--tRNA ligase, cytoplasmic; assay: Inhibition of LRS-dependent mTORC1 activation in HEK293 cells assessed as reduction in leucine-induced mTORC1-mediated S6 Kinase phosphorylation at 200 uM pretreated before leucine stimulation measured after 10 mins by immunoblot analysis; format: cell-based
Target sequence in this assay (Q9P2J5 whole entry, looked up): as above

[5] = molecular target: T1, Leucine--tRNA ligase, cytoplasmic; assay: Inhibition of LRS canonical enzyme activity in HEK293 cells assessed as effect on enzyme-mediated aminoleucylation; format: cell-based
Target sequence in this assay (Q9P2J5 whole entry): as the sequence (Q9P2J5 whole entry, looked up) above

CO[C@H]1C[C@@H]2CC[C@@H](C)[C@@](O)(O2)C(=O)C(=O)N2CCCC[C@H]2C(=O)O[C@H]([C@H](C)C[C@@H]2CC[C@@H](O)[C@H](OC)C2)CC(=O)[C@H](C)/C=C(\C)[C@@H](O)[C@@H](OC)C(=O)[C@H](C)C[C@H](C)/C=C/C=C/C=C/1C
inhibition [1]: Active

COc1cc([C@@H]2c3cc4c(cc3[C@@H](O[C@@H]3O[C@@H]5CO[C@@H](C)O[C@H]5[C@H](O)[C@H]3O)[C@H]3COC(=O)[C@H]23)OCO4)cc(OC)c1O [ETOPOSIDE]
IC50 (A549): 0.3 µM
IC50 (K562): 0.76 µM
IC50 (MDA-MB-231): 1.53 µM
IC50 (MRC5): 11.7 µM
IC50 (SNU-638): 1.05 µM
IC50 (HCT-116): 1.06 µM
IC50 (SK-HEP1): 0.63 µM

COc1ccc(CNS(=O)(=O)c2ccc(N3C[C@H](CC(C)C)NC3=O)cc2)cc1OC
inhibition [2]: inactive

COc1ccc(CNS(=O)(=O)c2ccc(NC(=O)[C@@H](N)CC(C)C)cc2)cc1OC
IC50 (A549): 5.29 µM
IC50 [3]: 44.9 µM
inhibition [3]: Dose-dependent effect
IC50 (K562): 4.48 µM
IC50 (MDA-MB-231): 5.44 µM
inhibition of S6K phosphorylation (qualitative) [4]: Active
IC50 (MRC5): > 20 µM
IC50 (SNU-638): 6.26 µM
IC50 (HCT-116): 3.96 µM
IC50 [5]: > 800 µM
IC50 (SK-HEP1): 3.07 µM

COc1ccc(CNS(=O)(=O)c2ccc(NC(=O)[C@@H](O)[C@H](O)C(C)C)cc2)cc1OC
inhibition of S6K phosphorylation (qualitative) [4]: Active

COc1ccc(CNS(=O)(=O)c2ccc(N3C(=O)N[C@@H](CC(C)C)C3=O)cc2)cc1OC
IC50 (A549): 5.54 µM
IC50 [3]: 26.4 µM
inhibition [3]: Dose-dependent effect
IC50 (K562): 2.86 µM
IC50 (MDA-MB-231): 5.65 µM
IC50 (MRC5): > 20 µM
IC50 (SNU-638): 5.22 µM
IC50 (HCT-116): 4.28 µM
IC50 [5]: > 800 µM
IC50 (SK-HEP1): 2.44 µM

COc1ccc(CNS(=O)(=O)c2ccc(NC(=O)[C@@H](O)CC(C)C)cc2)cc1OC
inhibition of S6K phosphorylation (qualitative) [4]: Active

CC(C)C[C@H](O)C(=O)NS(=O)(=O)OC[C@H]1O[C@@H](n2cnc3c(N)nc(I)nc32)[C@H](O)[C@@H]1O
inhibition of S6K phosphorylation (qualitative) [4]: Active
